Measurements from patent US20020143034A1, “Aminoalcohol derivatives and their use as beta 3 adrenergic agonists” (Fujisawa Pharmaceutical Co. Ltd., priority 1998, published 2002).

System: anesthetized dog
Test: Effect on the increase in intravesical pressure induced by carbachol in anesthetized dog
Assay type: in vivo
Conditions: 0.32 mg/kg intra-duodenal, 30 minutes before carbachol (1.8 μg/kg); female Beagle dogs under halothane anesthesia; N = 2; Control 9.3
Procedure: Effect on the increase in intravesical pressure induced by carbachol in anesthetized dog
Female Beagle dogs weighing 8.0-15.0 kg were fasted for 24 hours and maintained under halothane anesthesia. A 12F Foley catheter was lubricated with water soluble jelly, inserted into the urethral orifice and advanced approximately 10 cm until the balloon tip was placed well inside the bladder. The balloon was then inflated with 5 ml of room air and catheter slowly withdrawn just part the first resistance that is felt at the bladder neck. Urine was completely drained out thought the catheter, and 30 ml of biological saline was infused. The catheter was connected to pressure transducer, and intravesical pressure was continuously recorded. The test compound was injected by intra-duodenal route at 30 minutes before the administration of carbachol (1.8 μg/kg).

SMILES: COc1ccc2c(Oc3ccc(C[C@@H](CO)NC[C@H](O)COc4ccccc4)cc3)ccnc2c1 [Example 78, 2(S)-2-[(2S)-2-hydroxy-3-(phenoxy)propylamino]-3-[4-(7-methoxyquinolin-4-yloxy)phenyl]propan-1-ol]
- Increase in intravesical pressure: 5.5 mmHg
